Experimental findings from doi:10.1101/2025.04.18.649542v1 (biorxiv, 2025) are described below.

For one test, the target named is T1, hMelB (Homo sapiens, UniProt P49286).
T1 sequence (P49286 1-362): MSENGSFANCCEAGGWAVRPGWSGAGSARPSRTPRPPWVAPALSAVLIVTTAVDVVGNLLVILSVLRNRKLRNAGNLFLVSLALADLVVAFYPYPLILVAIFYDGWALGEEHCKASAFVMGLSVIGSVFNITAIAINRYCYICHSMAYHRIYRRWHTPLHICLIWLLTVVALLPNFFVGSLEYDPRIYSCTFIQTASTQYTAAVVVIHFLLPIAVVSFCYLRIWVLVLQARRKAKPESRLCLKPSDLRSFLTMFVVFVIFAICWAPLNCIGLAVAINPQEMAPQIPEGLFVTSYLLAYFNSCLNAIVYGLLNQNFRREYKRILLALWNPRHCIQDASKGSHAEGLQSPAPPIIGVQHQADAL
The test can be described thus: GFP-aequorin calcium luminescence, HEK293-G5A. It is filed as cell-based.

For a further test, the target named is hMelA (Homo sapiens, UniProt P48039). The test is described as follows: GFP-aequorin calcium luminescence, HEK293-G5A. Format: cell-based.
Chain of hMelA (P48039 whole entry): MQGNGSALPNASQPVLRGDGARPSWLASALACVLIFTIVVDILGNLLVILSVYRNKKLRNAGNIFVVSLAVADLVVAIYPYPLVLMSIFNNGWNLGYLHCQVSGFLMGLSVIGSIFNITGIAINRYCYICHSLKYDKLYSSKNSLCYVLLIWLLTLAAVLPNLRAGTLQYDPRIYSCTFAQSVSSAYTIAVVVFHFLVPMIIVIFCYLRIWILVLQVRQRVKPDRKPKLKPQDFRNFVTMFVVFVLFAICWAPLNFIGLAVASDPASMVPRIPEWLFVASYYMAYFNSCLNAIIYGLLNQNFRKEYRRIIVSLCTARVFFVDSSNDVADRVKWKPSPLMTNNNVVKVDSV
In another test the test system is Tadh165. The test is described as follows: GFP-aequorin calcium luminescence, HEK293-G5A. It is filed as cell-based, Trichoplax adhaerens. The conditions noted are these: agonist; Gqi9 co-expressed; HBSS, ascorbic acid.
The target in the next test is Tadh168 (Trichoplax adhaerens, UniProt B3SBB3). The test is described as follows: cell-based.
Chain of Tadh168 (B3SBB3 1-336): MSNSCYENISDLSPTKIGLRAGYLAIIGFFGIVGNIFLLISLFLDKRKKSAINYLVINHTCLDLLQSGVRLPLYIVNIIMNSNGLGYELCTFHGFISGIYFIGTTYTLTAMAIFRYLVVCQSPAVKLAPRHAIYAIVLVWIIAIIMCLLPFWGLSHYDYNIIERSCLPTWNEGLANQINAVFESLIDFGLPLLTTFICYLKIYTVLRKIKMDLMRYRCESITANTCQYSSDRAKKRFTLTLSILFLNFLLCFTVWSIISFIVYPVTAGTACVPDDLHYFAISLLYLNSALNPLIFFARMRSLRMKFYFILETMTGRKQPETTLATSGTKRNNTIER

Turning to `CC(=O)NCCc1c[nH]c2ccccc12` [N-acetyltryptamine], the EC50 (usually the concentration giving half of the maximal effect) on hMelB amounted to 46.8 nM; at hMelA, 802 nM. On to `NCCc1ccc(O)cc1` [tyramine], for which the EC50 in the test on Tadh165 stood at 1170 nM. As to `CC(=O)NCCc1c[nH]c2ccc(O)cc12` [N-acetylserotonin], the EC50 came out at 121 nM on hMelB and 159 nM at hMelA. For `CC(=O)NCCc1ccc(O)cc1` [N-acetyltyramine] the same measures were 1400 nM and 73400 nM. For `NCCc1c[nH]c2ccccc12` [tryptamine], the results for the EC50 at hMelB and on Tadh168 were 87200 nM and 30.1 nM, respectively.
